Results taken from paper PMC10065791 (eLife, 2023).

What was measured:
[1] = molecular target: T1, I50V/A71V mutant protease (Human immunodeficiency virus type 1 group M subtype B, UniProt P12497, A559V/I538V/Q495K); assay: Ki assay (FRET enzyme inhibition), I50V/A71V protease; format: biochemical, HIV-1; settings: I50V/A71V drug-resistant protease variant
T1 construct: the gene encoding the desired HIV-1 protease was subcloned into the heat-inducible pXC35 expression vector; made in house
Experimental: (§1) The highly mutated, resistant, protease variant genes were purchased on a pET11a plasmid with codon optimization for protein expression in Escherichia coli (Genewiz). A Q7K mutation was included to prevent autoproteolysis ([Rosé et al., 1993]). The expression, isolation, and purification of WT and mutant HIV-1 proteases used for enzymatic assays were carried out as previously described ([Henes et al., 2019]; [King et al., 2002]; [Özen et al., 2014]). Briefly, the gene encoding the desired HIV-1 protease was subcloned into the heat-inducible pXC35 expression vector (ATCC) and transformed into E. coli TAP-106 cells. Cells grown in 6 l of Terrific Broth were lysed with a cell disruptor twice, and the protein was purified from inclusion bodies ([Hui et al., 1993]). Inclusion bodies, isolated as a pellet after centrifugation, were dissolved in 50% acetic acid followed by another round of centrifugation at 19,000 rpm for 30 min to remove insoluble impurities. Size-exclusion chromatography was carried out on a 2.1 l Sephadex G-75 Superfine (Sigma Chemical) column equilibrated with 50% acetic acid to separate high molecular weight proteins from the desired protease. Pure fractions of HIV-1 protease were refolded using a tenfold dilution of refolding buffer (0.05 M sodium acetate at pH 5.5, 5% ethylene glycol, 10% glycerol, and 5 µM DTT). Folded protein was concentrated to 0.5–3 mg/ml and stored. The stored protease was used in KM and Ki assays.
(§2) Enzyme inhibition constants (Ki values) were determined as previously described ([Henes et al., 2019]; [Lockbaum et al., 2019]; [Matayoshi et al., 1990]; [Windsor and Raines, 2015]). Briefly, in a 96-well plate, inhibitors were serially diluted down from […] depending on protease resistance. All samples were incubated with 5 nM protein for 1 hr. A 10-amino acid substrate containing an optimized protease cleavage site ([Windsor and Raines, 2015]), purchased from Bachem, with an EDANS/DABCYL FRET pair was dissolved in 4% DMSO at 120 µM. Using a PerkinElmer Envision plate reader, 5 µl of the 120 µM substrate were added to the 96-well plate to a final concentration of 10 µM. […] Data was analyzed with Prism7.

I84V mutant protease = molecular target: T2, I84V mutant protease (Human immunodeficiency virus type 1 group M subtype B, UniProt P12497, I572V/Q495K); assay: Ki assay (FRET enzyme inhibition), I84V protease; format: biochemical, HIV-1; settings: I84V drug-resistant protease variant
T2 construct: the gene encoding the desired HIV-1 protease was subcloned into the heat-inducible pXC35 expression vector; made in house
Experimental: as §1, §2

wild-type NL4-3 protease = molecular target: T3, wild-type NL4-3 protease (Human immunodeficiency virus type 1 group M subtype B, UniProt P12497, Q495K); assay: Ki assay (FRET enzyme inhibition), wild-type protease; format: biochemical, HIV-1; settings: limit of detection 5 pM, read-out: Ki WT
T3 construct: the gene encoding the desired HIV-1 protease was subcloned into the heat-inducible pXC35 expression vector; made in house
Experimental: as §1, §2

[2] = system: virus pool selected to 5000 nM inhibitor; assay: TZM infection assay, inhibitor-selected resistant virus pools; format: cell-based, HIV-1; settings: Human immunodeficiency virus 1, read-out: EC50 Viral culture (5000 nM); final virus pool selected with the same inhibitor to 5000 nM; highest level recorded 100 µM
Experimental: In addition to the sequence of the terminally selected virus, we validated that selection occurred over the entire course of the selection protocol. […] In comparing the number of mutations present in cultures using the I84V versus the I50V pathway, we noted that on average there were more mutations in the I50V viruses at the intermediate drug concentration compared to the I84V viruses (100 nM, p=0.03), and this trend continued at the higher drug concentration.
An aliquot of 3 × 10^6 CEMx174 cells was incubated at 37°C for 2–3 hr with 250 µl of a virus stock generated from the HIV-1 infectious molecular clone pNL4-3. The culture volume was then brought to 10 ml with RPMI medium. […] After 48 hr and every 48 hr after, the cells were pelleted by centrifugation and 10 ml of fresh medium and inhibitors were added. When the culture had undergone extensive cytopathic effect (CPE) indicative of viral replication, the supernatant medium and the cells were harvested separately and stored at –80°C. The virus-containing supernatant was used to start the next round of infection, and after several rounds at the initial concentration, the inhibitor concentration was increased 1.5-fold at each subsequent round of virus passage.
PI dilutions were prepared by taking 10 µM stocked and performing a fivefold serial dilution using RPMI media (final drug concentration is […]). One dilution of drug was added to each well of a 24-well plate and repeated so each virus would have a full set of dilutions. Viruses for the assay were made by seeding 3 × 10^6 CEM cells in a 24-well plate and incubating with 250 µl of virus at 37°C for 2–3 hr before bringing the culture to 10 ml with RPMI media. After 48 hr, the medium was changed and repeated every 48 hr after until the culture had undergone CPE. Infected CEM cells were collected and diluted so that 1 ml of cells could be plated in each well containing a unique drug dilution. Then 24 hr later the virus supernatant was collected from each well followed by filtering through a […] then placed in –80°C. Viruses were thawed and added to 96-well plates in triplicate. TZM-bl cells were collected and diluted to a concentration of 2 × 10^5 cells/ml, 100 µl were added on top of the pre-plated viruses. Plates were kept in 37°C, 5% CO2 in an incubator for 48 hr. After 48 hr, the cells in the plates were lysed by removing the medium, washing two times with 100 µl PBS, and then lysed with 1× lysis buffer (made from 5× Promega Firefly Lysis Buffer). Plates were frozen for at least 24 hr and then thawed for 2 hr before analyzing with Promega Firefly Luciferase Kit on a luminometer. Data was analyzed with Prism 7 to fit sigmoidal dose–response curves.

Row | SMILES | Ki [1] [nM] | Ki (I84V mutant protease) [nM] | Ki (wild-type NL4-3 protease) [nM] | EC50 [2] [nM]
1 | CC[C@H](C)CN(C[C@@H](O)[C@H](Cc1ccccc1)NC(=O)O[C@H]1CO[C@H]2OCC[C@H]21)S(=O)(=O)c1ccc2c(c1)OCO2 [UMASS-4] | 0.0329 ± 0.003 | 0.0105 ± 0.0018 | < 0.005 | 13700
2 | CCC(CC)CN(C[C@@H](O)[C@H](Cc1ccccc1)NC(=O)O[C@H]1CO[C@H]2OCC[C@H]21)S(=O)(=O)c1ccc(OC)cc1 [UMASS-7] | 0.0182 ± 0.003 | 0.0121 ± 0.0045 | < 0.005 | 
3 | CCC(CC)CN(C[C@@H](O)[C@H](Cc1ccccc1)NC(=O)O[C@H]1CO[C@H]2OCC[C@H]21)S(=O)(=O)c1ccc2c(c1)OCO2 [UMASS-9] | 0.0423 ± 0.0026 | 0.0076 ± 0.0016 | < 0.005 | > 100000
4 | CC[C@H](C)CN(C[C@@H](O)[C@H](Cc1ccccc1)NC(=O)O[C@H]1CO[C@H]2OCC[C@H]21)S(=O)(=O)c1ccc(CO)cc1 [UMASS-3] | 0.0799 ± 0.0059 | 0.0099 ± 0.0027 | < 0.005 | 14800
5 | CC[C@H](C)CN(C[C@@H](O)[C@H](Cc1ccccc1)NC(=O)O[C@H]1CO[C@H]2OCC[C@H]21)S(=O)(=O)c1ccc2ncsc2c1 [UMASS-5] | 0.0078 ± 0.0009 | 0.007 ± 0.0017 | < 0.005 | > 100000
